Measurements taken from patent US9073899B2, “Solid forms of dabigatran etexilate mesylate and processes for their preparation” (ESTEVE QUÍMICA, S.A., priority 2012, dated 2015).
Entries after “also recorded” stand apart in the source; their conditions may differ. Where a name gives a salt, the structure may show the parent alone.

How the values were obtained:
Format in all cases: physicochemical
[1] = Solubility in acetonitrile (50 mg added to 1 mL with stirring); settings: for solubility observation (in words): 24° C. / room temperature (20-25° C.)
Procedure: (§1) Dabigatran etexilate mesylate, Form I, 50 mg, was added to acetonitrile (1 mL) with stirring, at 24° C. The product was not soluble under these conditions. The mixture was stirred for 48 hours, filtered and analysed to be Form A of dabigatran etexilate mesylate as determined by powder XRD.
(§2) The solubility of the amorphous form is therefore >50 mg/mL. After approximately 5 minutes a solid crystallized. The mixture was stirred for 48 hours, filtered and analysed to be Form A of dabigatran etexilate mesylate as determined by powder XRD.
(§3) Dabigatran etexilate mesylate, Form A, 50 mg, was added to acetonitrile (1 mL) with stirring, at 24° C. The product was not soluble under these conditions. The mixture was stirred for 48 hours, filtered and analysed to be Form A of dabigatran etexilate mesylate as determined by powder XRD.

[2] = Stability assay: slurrying in acetonitrile, solid form by powder XRD; settings: acetonitrile 1 mL, 50 mg, 24° C. (room temperature), stirred 48 hours
Procedure: (§4) Powder diffraction patterns were acquired using a PANalytical, X'Pert diffractometer using CuKalpha-radiation. The system was configured in theta-theta, transmission geometry equipped with a focusing X-ray mirror and PIXcel detector.
as §1, §2, §3

[3] = Solvent mediated transformation of mixtures of forms in 2-propanol, solid form by powder XRD; settings: 2-propanol 0.6 mL, ambient temperature, orbital agitator
Procedure: as §4
(§5) Dabigatran etexilate mesylate, a mixture of Form I, 17 mg and Form A, 15 mg, was suspended in 2-propanol (0.6 mL) and the mixture agitated at ambient temperature using an orbital agitator for 64 hours. The mixture was filtered, dried under vacuum and analysed to be purely Form A of dabigatran etexilate mesylate as determined by powder XRD.
as §5, with “II, 10” for “I, 17”, “7 days.” for “64 hours.”

SMILES	solid form after slurrying (powder XRD) [2]	solubility observation (in words) ([1]; 50 mg in 1 mL acetonitrile)	also measured
CCCCCCOC(=O)NC(=N)c1ccc(NCc2nc3cc(C(=O)N(CCC(=O)OCC)c4ccccn4)ccc3n2C)cc1 [dabigatran etexilate mesylate Form I, dabigatran etexilate mesylate]	converted entirely into Form A	not soluble; also recorded: at least partly insoluble	–
CCCCCCOC(=O)/N=C(\N)c1ccc(NCc2nc3cc(C(=O)N(CCC(=O)OCC)c4ccccn4)ccc3n2C)cc1 [mixture of Form I and Form A, dabigatran etexilate mesylate]	–	–	solid form after slurrying mixture of forms (powder XRD) ([3]; 64 hours): purely Form A; also recorded: converted entirely into Form A
CCCCCCOC(=O)/N=C(\N)c1ccc(NCc2nc3cc(C(=O)N(CCC(=O)OCC)c4ccccn4)ccc3n2C)cc1 [mixture of Form II and Form A, dabigatran etexilate mesylate]	–	–	solid form after slurrying mixture of forms (powder XRD) ([3]; 7 days): purely Form A; also recorded: converted entirely into Form A

More lines, main results first:

solid form after slurrying (powder XRD) [2]	SMILES	solubility observation (in words) ([1]; 50 mg in 1 mL acetonitrile)	also measured
Form A; also recorded: stable	CCCCCCOC(=O)NC(=N)c1ccc(NCc2nc3cc(C(=O)N(CCC(=O)OCC)c4ccccn4)ccc3n2C)cc1 [dabigatran etexilate mesylate Form A, dabigatran etexilate mesylate]	not soluble; also recorded: at least partly insoluble	–
Form A	CCCCCCOC(=O)NC(=N)c1ccc(NCc2nc3cc(C(=O)N(CCC(=O)OCC)c4ccccn4)ccc3n2C)cc1 [amorphous dabigatran etexilate mesylate, dabigatran etexilate mesylate]	complete dissolution almost immediately; also recorded: completely dissolved	time until a solid crystallized from the acetonitrile solution ([1]; 50 mg in 1 mL acetonitrile, 24° C., after complete dissolution): approximately 5 minutes; solubility ([1]; organic solvent or mixture, thermodynamic from solid, acetonitrile, 24° C., 50 mg in 1 mL): > 50 mg/mL
